How the values were obtained:
SKOV3IP1CIS = experiment: Cell cycle progression by flow cytometry; format: cell-based, human; details: 48 hours post-transfection
Experimental: To assess cell cycle progression, OVCAR3CIS (3.0×10^4 cells/mL) or SKOV3ip1CIS (3.5×10^4 cells/mL) were seeded into 10 cm Petri dishes and transfected with NC-siRNA or CASC10-siRNA (2). Forty-eight hours later, attached cells were collected, washed in ice-cold PBS, fixed with 70% cold ethanol, and stored at 4° C. Cells were then washed with ice-cold PBS, resuspended in propidium iodide (PI)/RNase Staining Buffer, incubated in the dark for 15 minutes at room temperature, and then analyzed by flow cytometry in BD C6 Accuri (CA, USA). Accuri's software was used to determine the percentage of cells in each cell cycle phase.

OVCAR3CIS cells [1] = experiment: Colony formation assay after siRNA transfection; format: cell-based; details: single siRNA, vs NC-siRNA
Experimental: (§1) SiRNA ON-TARGET plus SMARTpool (a mixture of 4 siRNA as a single tube) and a negative control siRNA (NC-siRNA) (Sigma-Aldrich) were used for transfection studies. CASC10, was targeted by using two siRNAs targeting different regions of the CASC10 RNA (e.g., CASC10-siRNA (1) and CASC10-siRNA (2)). OVCAR3CIS or SKOV3ip1CIS cells were seeded into 12-well plates at 3.0×10^4 cells/mL. The next day, siRNAs were mixed with HiPerfect transfection reagent (Qiagen, Valencia, CA) at a 1:2 ratio (SIRNA: HiPerfect) in serum and antibiotic-free Opti-MEM medium (Gibco) and added to the cells. After twenty-four hours the media was replaced by regular culture media, and cells were cultured and used for further experiments. To assess siRNA transfection efficiency, cells were collected 24 hours after siRNA transfection.
OVCAR3CIS cells (3.0×10^4 cells/mL) or SKOV3ip1CIS (3.0×10^4 cells/mL) were seeded into 12-well plates. Twenty-four hours later, cells were transfected with 100 nM (final concentration) of each siRNA. […] Colonies of at least 50 cells were counted using a light microscope (CKX41: Olympus, Center Valley, PA, USA) with a total magnification of 40x. […] Optical density (OD) was measured, and percentages of cell viability were calculated after blank OD subtraction. Untreated cells were assessed as 100% cell viability. […]

SKOV3ip1 cells = experiment: Cell viability, Alamar blue, siRNA; format: cell-based, human; details: SKOV3ip1, any siRNA concentration tested, vs NC-siRNA
Experimental: (§2) OVCAR3CIS cells (3.0×10^4 cells/mL) or SKOV3ip1CIS (3.0×10^4 cells/mL) were seeded into 12-well plates. Twenty-four hours later, cells were transfected with 100 nM (final concentration) of each siRNA. The next day, 400 cells (OVCAR3CIS) or 1,000 cells (SKOV3ip1CIS) were seeded into 6-well plates and incubated for seven days, fixed and stained with 0.5% crystal violet in methanol. Colonies of at least 50 cells were counted using a light microscope (CKX41: Olympus, Center Valley, PA, USA) with a total magnification of 40x. For cell viability assays, OVCAR3 and OVCAR3CIS (3.0×10^4 cells/mL) or SKOV3ip1and SKOV3ip1CIS (3.5×10^4 cells/mL) were seeded into 96-well plates, and 24 hours later, siRNA transfection was performed as described above. The next day, the transfection mix was replaced with cisplatin (CIS) (2.5 uM final concentration dissolved in regular cell culture media) and after forty-eight hours, the medium was removed, and Alamar blue dye (Invitrogen, Thermo Fisher Scientific, Eugene, OR, USA) was added following the manufacturer's instructions. Optical density (OD) was measured, and percentages of cell viability were calculated after blank OD subtraction. Untreated cells were assessed as 100% cell viability.

OVCAR3CIS cells [2] = experiment: Western blot of apoptotic-related and cell-cycle related proteins; format: cell-based; details: vs NC-siRNA
Experimental: (§3) Cell pellets were lysed with complete lysis buffer and total protein concentration […]. Protein samples were separated by SDS-PAGE, blotted onto nitrocellulose membranes, blocked in either 5% non-fat dry milk (Bio-Rad) or 5% BSA (HyClone), and probed with the appropriate dilution of corresponding primary antibody. Membranes were rinsed and incubated with corresponding HRP-conjugated secondary antibody, followed by enhanced chemiluminescence and autoradiography.

OVCAR3 cells = experiment: Cell viability, Alamar blue, siRNA; format: cell-based; details: OVCAR3, any siRNA concentration tested, vs NC-siRNA
Experimental: as §2

SKOV3ip1CIS cells [3] = experiment: Colony formation assay after siRNA transfection; format: cell-based, human; details: SKOV3ip1CIS (FIG. 8B)
Experimental: as §1
OVCAR3CIS cells (3.0×10^4 cells/mL) or SKOV3ip1CIS (3.0×10^4 cells/mL) were seeded into 12-well plates. Twenty-four hours later, cells were transfected with 100 nM (final concentration) of each siRNA. […] Colonies of at least 50 cells were counted using a light microscope (CKX41: Olympus, Center Valley, PA, USA) with a total magnification of 40x. […] Optical density (OD) was measured, and percentages of cell viability were calculated after blank OD subtraction. Untreated cells were assessed as 100% cell viability.

SKOV3ip1CIS cells [4] = experiment: Western blot of apoptotic-related and cell-cycle related proteins; format: cell-based, human
Experimental: as §3

Caspase-3 = Caspase-3 fluorometric activity in OVCAR3CIS cells; format: cell-based; details: 72 hours after transfection, vs NC-siRNA
Experimental: Caspase-3 activity was quantified using the Caspase-3/CPP32 Fluorometric Assay Kit (BioVision CA, USA) as per the manufacturer's instructions. OVCAR3CIS (3.0×10^4 cells/mL) or SKOV3ip1CIS (3.5×10^4 cells/mL) were seeded into 10 cm Petri dishes and transfected with NC-siRNA or CASC10-siRNA (2). Twenty-four hours later, the media was replaced by regular media, and seventy-two hours after transfection, cells were collected, pellets lysed, and total protein concentration determined. Equal amounts of protein were mixed with 2×Reaction Buffer and 1 mM DEVD-AFC substrate in a 96-well plate and incubated at 37° C. for 2.5 hours. Fluorescence intensity at 400 nm excitation and 505 nm emission was measured.

CASC10 = experiment: RT-qPCR of CASC10 expression after siRNA transfection in OVCAR3CIS cells; format: cell-based; details: vs NC-siRNA
Experimental: as §1
A custom-made 384-well plate containing pre-designed forward and reverse primers was purchased from Bio-Rad (CA, USA). Total RNA was isolated from OVCAR3 and OVCAR3CIS cells using the GenElute Mammalian Total RNA Mini Kit (Millipore-Sigma, MO, USA) following the manufacturer's instructions. […] Fold-changes and cycle threshold (Ct) values were calculated by the instrument's internal software relative to OVCAR3 cells and normalized to B-actin along with controls for gDNA, PCR reaction, RT reaction, and RNA quality.

Question: Which results are given for “CASC10-siRNA (2): siRNA targeting CASC10 RNA, SEQ ID NO 3 and 4: 5′ GACUCUUGGAUCCAAGUUU(dT)(dT) 3′ / 5′ AAACUUGGAUCCAAGAGUC(dT)(dT) 3′ (chain 1 GACUCUUGGAUCCAAGUUUNN; chain 2 AAACUUGGAUCCAAGAGUCNN; 3' dTdT overhangs, chemistry not fully specified)”?
Answer: cell cycle progression (SKOV3IP1CIS): cell cycle arrest in the G0/G1 to S phase; reduction in the number of colonies (OVCAR3CIS cells [1]): 54%; cell viability (SKOV3ip1 cells): did not significantly reduce cell viability; Bcl-2 protein (OVCAR3CIS cells [2]): strong reduction; CDK4 protein (OVCAR3CIS cells [2]): reduction; Cyclin E1 protein (OVCAR3CIS cells [2]): reduction; cleaved Caspase-3 protein (OVCAR3CIS cells [2]): significant increase; cleaved Caspase-9 protein (OVCAR3CIS cells [2]): significant increase; cleaved PARP-1 protein (OVCAR3CIS cells [2]): significant increase; p27 protein levels (OVCAR3CIS cells [2]): reduction; cell viability (OVCAR3 cells): did not significantly reduce cell viability; reduction in the number of colonies (SKOV3ip1CIS cells [3]): 86%; Bcl-2 decrease (SKOV3ip1CIS cells [4]): 66%; cleaved Caspase-3 increase (SKOV3ip1CIS cells [4]): 6 fold; cleaved Caspase-9 increase (SKOV3ip1CIS cells [4]): 2 fold; cleaved PARP-1 increase (SKOV3ip1CIS cells [4]): 7 fold; CDK4 protein (SKOV3ip1CIS cells [4]; vs NC-siRNA): reduction; Cyclin E1 protein (SKOV3ip1CIS cells [4]; vs NC-siRNA): reduction; p27 protein levels (SKOV3ip1CIS cells [4]; vs NC-siRNA): reduction; increase in caspase-3 activity (Caspase-3): 5 fold; decrease of CASC10 expression (CASC10): 57%

From patent US20250333733A1, “NOVEL TARGETS AGAINST OVARIAN CANCER” (UNIVERSITY OF PUERTO RICO, priority 2022, published 2025)
